The source of these data is US12161648B2, “Covalent targeting of E3 ligases” (The Regents of the University of California, priority 2018, dated 2024).

In assay [1] the target is T1, RNF4 (Homo sapiens, UniProt P78317).
T1 construct: purchased Boston Biochem K-220
T1 sequence (P78317 1-190): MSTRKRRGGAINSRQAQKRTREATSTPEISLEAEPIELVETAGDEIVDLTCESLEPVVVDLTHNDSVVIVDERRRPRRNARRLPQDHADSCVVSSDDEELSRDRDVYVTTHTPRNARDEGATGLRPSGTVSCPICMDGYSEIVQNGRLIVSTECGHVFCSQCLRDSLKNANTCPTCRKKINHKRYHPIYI
As to the kind of experiment: RNF4 in vitro auto-ubiquitination assay. To be noted: 100 μM pre-incubation. It is filed as biochemical. As to the method: RNF4 ubiquitination assay. […] Subsequently, UBE1 (50 nM, Boston Biochem, E-305), UBE2D1 (400 nM Boston Bichem, E2-615), Flag-ubiquitin (4000 nM, Boston Biochem, U-120) and ATP (200 μM) were added in ubiquitination assay buffer bring the total volume to 30 μL. The mixture was incubated at RT for 30 min before quenching with 10 μL of 4× Laemmli's buffer. Ubiquitination activity was measured by separation on an SDS-PAGE gel and western blotting as previously described.

Assay [2] has as its target T1, RNF4. Nature of the assay: LC-MS/MS analysis of covalent adduct on RNF4. It counts as binding. The conditions noted are these: 50 μM, 30 min, tryptic digests. As to the method:
LC-MS/MS analysis of RNF4. Purified RNF4 (10 μg) was diluted into 80 μL of PBS and treated for 30 min with DMSO or compound (50 μM). […] The samples were precipitated by additional of 20 μL of 100% (w/v) TCA and combined pairwise before cooling to −80 C for one hour.

For assay [3], the target named is T1, RNF4. As to the kind of experiment: Gel-based ABPP, competition against IA-rhodamine labeling of pure RNF4. It counts as binding. The conditions noted are these: for inhibition of IA-rhodamine labeling of RNF4: confirmation of screening hits; for hits from covalent ligand screen against IA-rhodamine labeling of RNF4: covalent ligands 50 μM, 30 min pre-incubation, IA-rhodamine 250 nM 1 h. As for the experimental part:
Gel-Based ABPP. Gel-based ABPP methods were performed as previously described^5,6,25,26. Pure recombinant human RNF4 was purchased from Boston Biochem (K-220). RNF4 (0.25 μg) was diluted into 50 μL of PBS and 1p L of either DMSO (vehicle) or covalently acting small molecule to achieve the desired concentration. After 30 minutes at room temperature, the samples were treated with 250 nM IA-Rhodamine (Setareh Biotech, 6222, prepared in anhydrous DMSO) for 1 h at room temperature. Samples were then diluted with 20 μL of 4× reducing Laemmli SDS sample loading buffer (Alfa Aesar) and heated at 90° C. for 5 min. The samples were separated on precast 4-20% Criterion TGX gels (Bio-Rad Laboratories, Inc.). Fluorescent imaging was performed on a ChemiDoc MP (Bio-Rad Laboratories, Inc) inhibition of target labeling was assessed by densitometry using ImageJ.

Assay [4] relates to 231MFP tumor xenograft. Nature of the assay: 231MFP tumor xenograft growth in SCID mice. It counts as in vivo. The conditions noted are these: 50 mg/kg ip, once per day, from day 17. As to the method: Tumor xenograft studies. Human tumor xenografts were established by transplanting cancer cells ectopically into the flank of female C.B17 severe combined immunodeficiency (SCID) mice (Taconic Farms) as previously described^66,69 In brief, cells were washed with PBS, trypsinized, and harvested in serum-containing medium. Harvested cells were washed in serum-free media and resuspended in serum-free media at a concentration of 2.0×10^4 cells/μl, and 100 μl was injected subcutaneously into the flank of each mouse. Tumors were measured with calipers. Animal experiments were conducted in accordance with the guidelines of the Institutional Animal Care and Use Committees of the University of California, Berkeley.

Assay [5] relates to 231MFP cells. Nature of the assay: Survival and proliferation assay (Hoechst stain), 231MFP. It is filed as cell-based, human. To be noted: 48 h.
Description: Survival and Proliferation Assays. Cell survival and proliferation assays were performed as previously described using Hoechst 33342 dye (Invitrogen) according to manufacturer's protocol and as previously described^62. 231MFP cells were seeded into 96-well plates (40,000 for survival and 20,000 for proliferation) in a volume of 150 μl and allowed to adhere overnight. Cells were treated with an additional 50 μL of media containing 1:250 dilution of 1000× compound stock in DMSO. After the appropriate incubation period, media was removed from each well and 100 μl of staining solution containing 10% formalin and Hoechst 33342 dye was added to each well and incubated for 15 min in the dark at room temperature. After incubation, staining solution was removed, and wells were washed with PBS before imaging.
Survival and Proliferation Assays. Cell survival and proliferation assays were performed as previously described using Hoechst 33342 dye (Invitrogen) according to manufacturer's protocol and as previously described^14. 231MFP cells were seeded into 96-well plates (40,000 for survival and 20,000 for proliferation) in a volume of 150 μl and allowed to adhere overnight. Cells were treated with an additional 50 μL of media containing 1:250 dilution of 1000× compound stock in DMSO. […]
Assay [6] relates to RNF114. As to the kind of experiment: RNF114 ubiquitination assay. The conditions noted are these: 50 μM, wild-type or C8A mutant RNF114. It is filed as biochemical, human.
Description: RNF114 ubiquitination assay. Recombinant Myc-Flag-RNF114 proteins were either purified from HEK292T cells as described above or purchased from Origene (Origene Technologies Inc., TP309752). For in vitro auto-ubiquitination assay, 0.2 μg of RNF114 in 25 μL of TBS was pre-incubated with DMSO vehicle or the covalently-acting compound for 30 min at room temperature. Subsequently, 0.1 μg of UBE1 (Boston Biochem. Inc, E-305), 0.1 μg UBE2D1 (Boston Bichem. Inc, e2-615), 5 μg of Flag-ubiquitin (Boston Bichem. Inc, u-120) in a total volume of 25 μL Tris buffer containing 2 mM ATP were added to achieve a final volume of 50 μL. The mixture was incubated at 37° C. with agitation for 1.5 h. 20 μL of Laemmli's buffer was added to quench the reaction and proteins were analyzed by western blot assay.
For assay [7], the target named is T2, RNF114 (Homo sapiens, UniProt Q9Y508).
T2 construct: Myc; FLAG; purchased Origene
T2 sequence (Q9Y508 whole entry): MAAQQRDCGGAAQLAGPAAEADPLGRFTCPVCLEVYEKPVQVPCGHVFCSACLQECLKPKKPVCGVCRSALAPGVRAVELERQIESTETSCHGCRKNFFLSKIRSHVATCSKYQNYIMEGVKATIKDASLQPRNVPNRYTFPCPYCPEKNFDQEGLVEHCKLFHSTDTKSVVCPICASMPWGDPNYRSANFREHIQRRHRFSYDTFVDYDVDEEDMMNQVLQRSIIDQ
As to the kind of experiment: Gel-based ABPP, competition against JNS27 labeling of pure RNF114. It counts as binding. The conditions noted are these: covalent ligands 50 μM. As for the experimental part: (§1) Gel-Based ABPP. Gel-based ABPP methods were performed as previously described^34,62,63,67. Recombinant pure human proteins were purchased from Origene. […] CuAAC was performed to append rhodamine-azide (1 μM final concentration) onto alkyne probe-labeled proteins. Samples were then diluted with 20 μL of 4× reducing Laemmli SDS sample loading buffer (Alfa Aesar) and heated at 90° C. for 5 min. The samples were separated on precast 4-20% TGX gels (Bio-Rad Laboratories, Inc.). Prior to scanning by ChemiDoc MP (Bio-Rad Laboratories, Inc), gels were fixed in a solution of 10% acetic acid, 30% ethanol for 2 hrs. Inhibition of target labeling was assessed by densitometry using ImageJ.
as §1, with “described^14.” for “described^34,62,63,67.”

Assay [8] has as its system 231MFP breast cancer cell proteomes. As to the kind of experiment: isoTOP-ABPP proteome-wide selectivity in 231MFP proteomes in vitro. It counts as binding, human. The conditions noted are these: 50 μM.
Assay [9] shares this test system. Nature of the assay: Gel-based ABPP of general cysteine-reactivity in 231MFP lysates. The conditions noted are these: IA-rhodamine 250 nM. It counts as binding, human. As to the method: FIG. 5. Additional hits against RNF4 and general assessment of proteome-wide selectivity of RNF4 hits by gel-based ABPP. Gel-based ABPP analysis of DKM 2-76 and TRH 1-74 against IA-rhodamine labeling of RNF4. Covalent ligands were pre-incubated with pure RNF4 protein for 30 min prior to IA-rhodamine labeling (250 nM) for 1 h. Proteins were subjected to SDS/PAGE and visualized by in-gel fluorescence. Gel-based ABPP screen of RNF4 hits YP 1-44 and TRH 1-23 against IA-rhodamine labeling in 231MFP breast cancer cell proteomes. YP 1-44 and TRH 1-23 were pre-incubated with proteome for 30 min prior to IA-rhodamine labeling (250 nM) for 1 h. Proteins were subjected to SDS/PAGE and visualized by in-gel fluorescence.

The target of assay [10] is T2, RNF114. As to the kind of experiment: Gel-based ABPP, nimbolide probe labeling of pure RNF114. It is filed as binding. To be noted: probe 10 μM, 1 h.

Take `O=C(CCl)Nc1ccc(Oc2ccccc2)cc1` [TRH 1-23]: the RNF4 autoubiquitination activity result in [1] is “does not inhibit”. Besides, the “site-of-modification within RNF4” value in assay [2] was “covalently modified either, but not both, of the two zinc-coordinating cysteines CI32 and CI35”. Moreover, in [3], the “potency to be useful as an RNF4 recruiter” value is reported as “did not show sufficient potency”; the “inhibition of IA-rhodamine labeling of RNF4” value was “reproducible and dose-responsive inhibition”; the “hits from covalent ligand screen against IA-rhodamine labeling of RNF4” value is listed as “potential hits”.
On to `C=CC(=O)NCc1ccc(C(=O)Nc2sc(-c3ccccc3)c(C)c2C(=O)N2CCCCC2)cc1` [EN62], for which the “231MFP tumor xenograft growth” value in [4] was “attenuated”. For the same compound, the “231MFP breast cancer cell survival” value in [5] is reported as “impaired”. Also, the RNF114 autoubiquitination activity result in [6] was “inhibited”. In assay [7], the “hit from covalent ligand screen against RNF114” value is on record as “promising hit”. The proteome-wide selectivity entry in assay [8] is “exhibited proteome-wide selectivity”.
On to `C=CC(=O)n1ccc2ccccc21` [YP 1-44, 1-(1H-indol-1-yl)prop-2-en-1-one], for which the “selectivity, general cysteine-reactivity” value in assay [9] is recorded as “much less selective compared to TRH 1-23”. In [3], the “inhibition of IA-rhodamine labeling of RNF4” value was “reproducible and dose-responsive inhibition”; the “hits from covalent ligand screen against IA-rhodamine labeling of RNF4” value was “potential hits”.
On to `C#CCNC(=O)c1ccc(-c2occc2[C@@H]2C[C@H]3O[C@@H]4[C@@H]5OC(=O)[C@]6(C)C=CC(=O)[C@](C)([C@@H](CC(=O)OC)[C@]4(C)C3=C2C)[C@@H]56)cc1` [nimbolide probe], for which the “probe labeling of pure RNF114” value in [10] is reported as “reacts with pure human RNF114”.
